Reference: patent publication US7569605B2, “Methods of treating central nervous system disorders with a low dose combination of escitalopram and bupropion” (Forest Laboratories Holdings Limited, priority 2005, dated 2009)

Experiments:
[1] = tested on: patients with major depressive disorder (MDD); test: double-blind fixed dose comparison in major depressive disorder: safety and tolerability; format: in vivo, human; conditions: for Early Discontinuation: AEs / Early Discontinuation: All Reasons / Early Discontinuation: Insufficient Response / Incidence of TEAEs: Pts with at least 1 TEAE / Selected TEAEs: anorexia / Selected TEAEs: completed suicide* / Selected TEAEs: constipation / Selected TEAEs: decreased appetite / Selected TEAEs: diarrhea / Selected TEAEs: dizziness / Selected TEAEs: dry mouth / Selected TEAEs: early morn awakening / Selected TEAEs: ejaculation delayed / Selected TEAEs: erectile dysfunction / Selected TEAEs: hypersomnia / Selected TEAEs: increased appetite / Selected TEAEs: initial insomnia / Selected TEAEs: insomnia / Selected TEAEs: intentional self-injury / Selected TEAEs: lethargy / Selected TEAEs: libido decreased / Selected TEAEs: libido increased / Selected TEAEs: middle insomnia / Selected TEAEs: nausea / Selected TEAEs: orgasm abnormal / Selected TEAEs: sedation / Selected TEAEs: sleep disorder / Selected TEAEs: somnolence / Selected TEAEs: suicidal ideation / Selected TEAEs: vomiting / Selected TEAEs: weight decreased / Selected TEAEs: weight increased: number of patients (%), 8 weeks double-blind; for patients discontinued treatment early / patients exhibited at least one Treatment Emergent Adverse Event (TEAE): percent of patients, as given in the text
Experimental: The present study evaluates the efficacy, safety, and tolerability of escitalopram/bupropion combination treatment relative to its component monotherapies, and to placebo in patients with major depressive disorder (MDD).
(§1) The study consists of a one-week single-blind placebo lead-in period followed by an 8 week double-blind treatment period. Approximately 135 patients are randomized to each of four treatment groups (placebo, escitalopram oxalate 4 mg, bupropion hydrochloride 150 mg, or escitalopram oxalate 4 mg/bupropion hydrochloride 150 mg), for a total of […].
(§2) A randomized, double-blind, fixed-dose, multicenter, parallel-group study is conducted in outpatients with MDD. Patients who meet eligibility criteria at Screening (Visit 1) enter a one-week, single-blind, lead-in period of placebo treatment. Patients who complete the lead-in period and continue to meet all entry criteria at Baseline (Visit 2) are randomly assigned to 8 weeks of double-blind treatment with either placebo, escitalopram 4 mg, bupropion XL 150 mg, or escitalopram 4 mg/bupropion XL 150 mg combination. Assignment to a treatment group is according to a computer-generated randomization schedule.
Safety assessments are made of the patients by a physician at every visit and the evaluation documented. At each visit beginning with Visit 2, patients are queried regarding any adverse events (AEs) since the last visit. Study site personnel record all pertinent information in the electronic Case Report Forms (eCRF). Patients are asked to volunteer information concerning AEs with non-leading question such as “How do you feel?” AEs are collected at Visit 2 and all subsequent visits including early termination.
Dosing: For the single-blind lead-in period, patients are supplied with placebo capsules. For the double-blind period, identical appearing capsules are supplied which contain placebo, escitalopram 4 mg, or bupropion extended-release 150 mg. Medication are supplied in blister cards, each containing 20 capsules arranged in two rows of 10 capsules.
All study medication is administered as a single daily dose throughout the study, preferably at the same time each evening starting on the day the medication is dispensed to the patient. Dosing is subsequently be switched to morning, if preferred. At each visit, patients are instructed to take 2 capsules daily, one from Row 1 and one from Row 2. Patients are instructed to return all unused medication at each study visit. Patients who meet eligibility criteria at Visit 1 are dispensed one blister card containing 20 placebo capsules. Patients are instructed to take two capsules daily as a single dose beginning on the day study medication is dispensed. Patients who meet all eligibility criteria at Visit 2 are assigned a randomization number and dispensed the corresponding blister card for Week 1 of treatment as shown in the Figure below:
Patients are assigned the lowest randomization number available at the site. Patients are instructed to take two capsules daily as a single dose beginning on the day study medication is dispensed. In accordance with their assigned treatment group, patients receive placebo, 4 mg escitalopram, 150 mg bupropion, or 4 mg escitalopram and 150 mg bupropion per day.
At Visit 3, patients are dispensed one blister card for Week 2 of treatment. At Visits 4, 5, and 6, patients are dispensed two blister cards for Weeks 3-4, 5-6, and 7-8 of treatment, respectively. Patients are instructed to continue taking two capsules daily as a single dose. In accordance with their assigned treatment group, patients receive placebo, 4 mg escitalopram, 150 bupropion, or 4 mg escitalopram and 150 mg bupropion per day.

[2] = tested on: rat dorsal raphe nucleus (DRN) 5-HT neurons; test: effects on rat dorsal raphe nucleus serotonin neurons (extracellular unitary recordings of firing); format: in vivo; conditions: anesthetized rats; two days treatment; escitalopram 10 mg/kg s.c. minipump, bupropion 30 mg/kg s.c. once daily
Experimental: Glass electrodes were lowered into the DRN 5-HT neurons were identified by their firing pattern and spike duration. […] NS). […] The experiments were carried out in male Sprague Dawley rats (Charles River, St. Constant, Québec, Canada) weighing between 300 to 325 g being kept under standard laboratory conditions (12:12 light-dark cycle with access to food and water ad libitum). Rats were anaesthetized with chloral hydrate (400 mg/kg, i.p.) and mounted in a stereotaxic apparatus (David Kopf Instruments, Tujunga, Calif., USA). […] Body temperature was maintained at 37° C. throughout the experiments utilizing a thermistor-controlled heating pad (Seabrook Medical Instruments, Inc., […], Canada). Prior to electrophysiological recording, rats were inserted with a catheter in a lateral tail vein for systemic injection of drugs. Rats received escitalopram oxalate administered through an osmotic minipump implanted subcutaneously, under halothane anaesthesia, which delivered 10 mg/kg/day. The recordings were carried out with the minipump in the animals. Bupropion hydrochloride was injected subcutaneously once a day at a dose of 30 mg/kg for 2 days with the last dose administered immediately prior to the electrophysiological experiments. […] Their impedance range was between 2 and 4 MΩ. […] Serotonin neurons were recorded with micropipettes lowered at +1.0 mm interaural on midline. […]

[3] = tested on: patients with major depressive disorder (MDD); test: Arizona Sexual Experiences Scale (ASEX) in the fixed dose comparison study; format: in vivo, human
Experimental: as §1, §2
The Arizona Sexual Experiences Scale (ASEX) is completed at Visits 2 and 7, or early termination. Different versions are used for males and females. This 5 item patient-rated scale assesses sexual experiences with respect to libido, psychological and physiological arousal, ability to attain orgasm, and satisfaction with orgasm. Each item is scored on a 6 point scale with higher numbers indicating greater sexual dysfunction.

| Compound | Early Discontinuation: AEs [1] | Early Discontinuation: All Reasons [1] | Early Discontinuation: Insufficient Response [1] | Incidence of TEAEs: Pts with at least 1 TEAE [1] | Selected TEAEs: anorexia [1] | Selected TEAEs: completed suicide* [1] [%] | Selected TEAEs: constipation [1] | Selected TEAEs: decreased appetite [1] | Selected TEAEs: diarrhea [1] | Selected TEAEs: dizziness [1] | Selected TEAEs: dry mouth [1] | Selected TEAEs: early morn awakening [1] | Selected TEAEs: ejaculation delayed [1] | Selected TEAEs: erectile dysfunction [1] [%] | Selected TEAEs: hypersomnia [1] [%] | Selected TEAEs: increased appetite [1] | Selected TEAEs: initial insomnia [1] | Selected TEAEs: insomnia [1] | Selected TEAEs: intentional self-injury [1] [%] | Selected TEAEs: lethargy [1] | also measured |
| --- | --- | --- | --- | --- | --- | --- | --- | --- | --- | --- | --- | --- | --- | --- | --- | --- | --- | --- | --- | --- | --- |
| CC(NC(C)(C)C)C(=O)c1cccc(Cl)c1 (racemic) [bupropion, (±)-1-(3-chlorophenyl)-2-[(1,1-dimethylethyl)amino]-1-propanone] | 10 (7.5%) | 29 (21.6%) | 4 (3.0%) | 101 (75.4%) | 0% | 0 | 6 (4.5%) | 5 (3.7%) | 5 (3.7%) | 2 (1.5%) | 13 (9.7%) | 2 (1.5%) | 0% | 0 | 0 | 3 (2.2%) | 1 (0.7%) | 14 (10.4%) | 0 | 2 (1.5%) | Selected TEAEs: libido decreased [1]: 1 (0.7%); Selected TEAEs: libido increased [1]: 0%; Selected TEAEs: middle insomnia [1]: 3 (2.2%); Selected TEAEs: nausea [1]: 5 (3.7%); Selected TEAEs: orgasm abnormal [1]: 0%; Selected TEAEs: sedation [1]: 1 (0.7%); Selected TEAEs: sleep disorder [1]: 2 (1.5%); Selected TEAEs: somnolence [1]: 2 (1.5%); Selected TEAEs: suicidal ideation [1]: 1 (0.7%); Selected TEAEs: vomiting [1]: 0%; Selected TEAEs: weight decreased [1]: 4 (3.0%); Selected TEAEs: weight increased [1]: 0%; patients discontinued treatment early [1]: 21.6%; patients exhibited at least one Treatment Emergent Adverse Event (TEAE) [1]: 75.4%; spontaneous firing of DRN 5-HT neurons [2]: 1.54 Hz; ASEX Change in total scores (improvement = reduction in score) ([3]; Females): −1.6571; ASEX Change in total scores (improvement = reduction in score) ([3]; Males): −1.4222 |
| CN(C)CCC[C@@]1(c2ccc(F)cc2)OCc2cc(C#N)ccc21 [escitalopram, 1-[3-(dimethyl-amino)propyl]-1-(p-fluorophenyl)-5-phthalancarbonitrile] | 5 (3.8%) | 24 (18.3%) | 0% | 86 (65.6%) | 1 (0.8%) | 0 | 3 (2.3%) | 2 (1.5%) | 6 (4.6%) | 3 (2.3%) | 11 (8.4%) | 1 (0.8%) | 2 (3.9%) | 0 | 0 | 1 (0.8%) | 0% | 5 (3.8%) | 0 | 0% | Selected TEAEs: libido decreased [1]: 3 (2.3%); Selected TEAEs: libido increased [1]: 0%; Selected TEAEs: middle insomnia [1]: 0%; Selected TEAEs: nausea [1]: 10 (7.6%); Selected TEAEs: orgasm abnormal [1]: 0%; Selected TEAEs: sedation [1]: 1 (0.8%); Selected TEAEs: sleep disorder [1]: 0%; Selected TEAEs: somnolence [1]: 4 (3.1%); Selected TEAEs: suicidal ideation [1]: 0%; Selected TEAEs: vomiting [1]: 2 (1.5%); Selected TEAEs: weight decreased [1]: 0%; Selected TEAEs: weight increased [1]: 3 (2.3%); patients discontinued treatment early [1]: 18.3%; patients exhibited at least one Treatment Emergent Adverse Event (TEAE) [1]: 65.6%; spontaneous firing of DRN 5-HT neurons [2]: 0.35 Hz; ASEX Change in total scores (improvement = reduction in score) ([3]; Females): −1.0000; ASEX Change in total scores (improvement = reduction in score) ([3]; Males): +0.1667 |
